# Laboratory results published in PubChem BioAssay (NCI).
#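 The compound was tested at five concentrations on cells cultured in 96-well plates, with a 48-hour exposure period. TGI denotes the concentration required for complete inhibition of growth.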
# Legend:
# Test in all cases: NCI-60 cell line screen, 48 h
# [1] = system: MOLT-4 leukemia
# [2] = system: OVCAR-8 ovarian
# [3] = system: MALME-3M melanoma
# [4] = system: NCI-H460 lung
# [5] = system: SF-539 CNS
# [6] = system: SW-620 colon
# [7] = system: KM12 colon
# [8] = system: SNB-78 CNS
# [9] = system: OVCAR-4 ovarian
# [10] = system: KM20L2 colon
# [11] = system: M14 melanoma
# [12] = system: HCC-2998 colon
# [13] = system: RPMI-8226 leukemia
# [14] = system: TK-10 renal
# [15] = system: CCRF-CEM leukemia
# [16] = system: DMS 273 small cell lung
# [17] = system: UACC-62 melanoma
# [18] = system: SK-MEL-28 melanoma
# [19] = system: HCT-116 colon
# [20] = system: CAKI-1 renal
# [21] = system: SK-MEL-5 melanoma
# [22] = system: NCI-H226 lung
# [23] = system: SNB-75 CNS
# [24] = system: M19-MEL melanoma
# [25] = system: UO-31 renal
# [26] = system: DLD-1 colon
# [27] = system: IGROV1 ovarian
# [28] = system: SF-295 CNS
# [29] = system: HL-60(TB) leukemia
# [30] = system: DMS 114 small cell lung
# [31] = system: OVCAR-3 ovarian
# [32] = system: RXF 393 renal
# [33] = system: HCT-15 colon
# [34] = system: NCI-H23 lung
# [35] = system: A498 renal
# [36] = system: 786-0 renal
# [37] = system: U251 CNS
# [38] = system: OVCAR-5 ovarian
# [39] = system: SK-MEL-2 melanoma
# [40] = system: ACHN renal
# [41] = system: SK-OV-3 ovarian
# [42] = system: UACC-257 melanoma
# [43] = system: HOP-62 NSCLC
# [44] = system: K-562 leukemia
# [45] = system: A549 NSCLC
# [46] = system: EKVX NSCLC
# [47] = system: LOX IMVI melanoma
# [48] = system: BT-549 breast
# [49] = system: NCI-H522 lung
# [50] = system: SNB-19 CNS
# [51] = system: SN12C renal
# [52] = system: DU-145 prostate
# [53] = system: MDA-MB-435
# [54] = system: COLO 205 colon
# [55] = system: MCF7 breast
# [56] = system: PC-3 prostate
# [57] = system: HS 578T breast
# [58] = system: T-47D breast
# [59] = system: MDA-MB-231 breast
# [60] = system: MDA-N
# [61] = system: SF-268 CNS
# [62] = system: HT29 colon
# [63] = system: HOP-92 NSCLC
# [64] = system: SR leukemia
# [65] = system: NCI/ADR-RES ovarian
# [66] = system: LXFL 529 NSCLC
smiles,measurement,setting,value
Cc1[nH]c2ccccc2c1C1CC(=O)NC1=O (stereo unspecified),TGI,[1],> 100 µM
same,TGI,[2],> 100 µM
same,TGI,[3],> 100 µM
same,TGI,[4],> 100 µM
same,TGI,[5],> 100 µM
same,TGI,[6],> 100 µM
same,TGI,[7],> 100 µM
same,TGI,[8],> 100 µM
same,TGI,[9],> 100 µM
same,TGI,[10],> 100 µM
same,TGI,[11],> 100 µM
same,TGI,[12],> 100 µM
same,TGI,[13],> 100 µM
same,TGI,[14],> 100 µM
same,TGI,[15],> 100 µM
same,TGI,[16],> 100 µM
same,TGI,[17],> 100 µM
same,TGI,[18],> 100 µM
same,TGI,[19],> 100 µM
same,TGI,[20],> 100 µM
same,TGI,[21],> 100 µM
same,TGI,[22],> 100 µM
same,TGI,[23],> 100 µM
same,TGI,[24],> 100 µM
same,TGI,[25],> 100 µM
same,TGI,[26],> 100 µM
same,TGI,[27],> 100 µM
same,TGI,[28],> 100 µM
same,TGI,[29],> 100 µM
same,TGI,[30],> 100 µM
same,TGI,[31],> 100 µM
same,TGI,[32],> 100 µM
same,TGI,[33],> 100 µM
same,TGI,[34],> 100 µM
same,TGI,[35],> 100 µM
same,TGI,[36],> 100 µM
same,TGI,[37],> 100 µM
same,TGI,[38],> 100 µM
same,TGI,[39],> 100 µM
same,TGI,[40],> 100 µM
same,TGI,[41],> 100 µM
same,TGI,[42],> 100 µM
same,TGI,[43],> 100 µM
same,TGI,[44],> 100 µM
same,TGI,[45],> 100 µM
same,TGI,[46],> 100 µM
Cc1ccc(/C=N/Nc2nncc3ccccc23)s1,TGI,[1],> 100 µM
same,TGI,[2],> 100 µM
same,TGI,[3],> 100 µM
same,TGI,[4],> 100 µM
same,TGI,[47],> 100 µM
same,TGI,[48],> 100 µM
same,TGI,[5],> 100 µM
same,TGI,[6],> 100 µM
same,TGI,[7],> 100 µM
same,TGI,[9],> 93.1 µM
same,TGI,[11],> 100 µM
same,TGI,[12],> 100 µM
same,TGI,[13],> 100 µM
same,TGI,[14],> 100 µM
same,TGI,[15],> 100 µM
same,TGI,[49],> 100 µM
same,TGI,[50],> 100 µM
same,TGI,[51],> 100 µM
same,TGI,[52],> 31.6 µM
same,TGI,[53],> 100 µM
same,TGI,[17],> 100 µM
same,TGI,[54],> 100 µM
same,TGI,[18],> 100 µM
same,TGI,[19],> 100 µM
same,TGI,[20],> 100 µM
same,TGI,[21],> 100 µM
same,TGI,[22],> 100 µM
same,TGI,[23],> 75.9 µM
same,TGI,[55],> 100 µM
same,TGI,[56],> 100 µM
same,TGI,[25],> 100 µM
same,TGI,[57],> 100 µM
same,TGI,[27],> 100 µM
same,TGI,[28],98.2 µM
same,TGI,[29],> 100 µM
same,TGI,[31],> 100 µM
same,TGI,[32],> 100 µM
same,TGI,[33],> 100 µM
same,TGI,[58],> 100 µM
same,TGI,[59],> 82 µM
same,TGI,[60],> 100 µM
same,TGI,[34],> 100 µM
same,TGI,[35],> 100 µM
same,TGI,[36],> 95.1 µM
same,TGI,[37],> 100 µM
same,TGI,[61],> 100 µM
same,TGI,[62],> 100 µM
same,TGI,[38],> 100 µM
same,TGI,[39],> 100 µM
same,TGI,[63],> 100 µM
same,TGI,[40],> 100 µM
same,TGI,[41],> 100 µM
same,TGI,[64],> 100 µM
same,TGI,[42],> 100 µM
same,TGI,[43],> 77.4 µM
same,TGI,[65],> 100 µM
same,TGI,[44],> 100 µM
same,TGI,[45],> 100 µM
same,TGI,[46],> 100 µM
O=C(O)CCSC(=O)Nc1cccc([N+](=O)[O-])c1,TGI,[1],> 100 µM
same,TGI,[2],> 100 µM
same,TGI,[4],> 100 µM
same,TGI,[47],> 100 µM
same,TGI,[5],> 100 µM
same,TGI,[6],> 100 µM
same,TGI,[7],> 100 µM
same,TGI,[8],> 100 µM
same,TGI,[9],> 100 µM
same,TGI,[11],> 100 µM
same,TGI,[12],> 100 µM
same,TGI,[13],> 100 µM
same,TGI,[14],> 100 µM
same,TGI,[15],> 100 µM
same,TGI,[50],> 100 µM
same,TGI,[16],> 100 µM
same,TGI,[51],> 100 µM
same,TGI,[66],> 100 µM
same,TGI,[54],> 100 µM
same,TGI,[18],> 100 µM
same,TGI,[19],> 100 µM
same,TGI,[20],> 100 µM
same,TGI,[23],> 100 µM
same,TGI,[25],> 100 µM
same,TGI,[26],> 100 µM
same,TGI,[27],> 100 µM
same,TGI,[28],> 100 µM
same,TGI,[29],> 100 µM
same,TGI,[30],> 100 µM
same,TGI,[31],> 100 µM
same,TGI,[32],> 100 µM
same,TGI,[33],> 100 µM
same,TGI,[34],> 100 µM
same,TGI,[35],> 100 µM
same,TGI,[36],> 100 µM
same,TGI,[37],> 100 µM
same,TGI,[61],64.8 µM
same,TGI,[62],> 100 µM
same,TGI,[39],> 100 µM
same,TGI,[40],> 100 µM
same,TGI,[64],> 100 µM
same,TGI,[42],> 100 µM
same,TGI,[43],> 100 µM
same,TGI,[44],> 100 µM
same,TGI,[45],> 100 µM
same,TGI,[46],> 100 µM
